Data on one compound can be found in paper PMC8566451, “Lead optimization of novel quinolone chalcone compounds by a structure–activity relationship (SAR) study to increase efficacy and metabolic stability” (Scientific Reports, 2021).

The test system of one experiment is HeLa cells. The experiment is described as follows: Combination of CTR-21 with ABT-737, combinatorial index. The class given is cell-based, human. As for the experimental part: (§1) (a) CTR-21 kills HeLa in a synergistic manner with ABT-737. Cells were treated with 0.78 nM CTR-21 and indicated concentrations of ABT-737. CI denotes combinatorial index, calculated according to described previously. (b) CTR-21 effectively kills paclitaxel-resistant cells when combined with paclitaxel. The paclitaxel-resistant MDA-MB-231TaxR cells were treated with 23 nM of CTR-21 and indicated concentrations of paclitaxel. TEXT PRINTED IN THE PICTURE: (a) Combo: HeLa: CI: 0.93 (ABT-737 (12.5 μM); CTR-21 (0.78 nM)); HeLa: CI: 0.94 (ABT-737 (6.25 μM); CTR-21 (0.78 nM)); HeLa: CI: 0.81 (ABT-737 (3.125 μM); CTR-21 (0.78 nM)); HeLa: CI: 0.48 (ABT-737 (1.5625 μM); CTR-21 (0.78 nM)) | (b) Combo: MDA-MB-231-TaxR: CI: 0.56 (Paclitaxel (75 nM); CTR-21 (23 nM)); MDA-MB-231-TaxR: CI: 0.38 (Paclitaxel (37.5 nM); CTR-21 (23 nM)); MDA-MB-231-TaxR: CI: 0.35 (Paclitaxel (18.75 nM); CTR-21 (23 nM)) DOUBTS OF THE COPYIST ABOUT THIS PICTURE: Each CI value is printed over a group of three bars (the two single agents and Combo). It is assigned here to the Combo, with the concentrations of the two agents given as conditions.

Another experiment relates to MDA-MB-231TaxR cells. The experiment is described as follows: Combination of CTR-21 with paclitaxel, combinatorial index. The conditions noted are these: paclitaxel 18.75 nM + CTR-21 23 nM. The class given is cell-based, human. On the procedure:
as §1

`COc1ccccc1C(=O)/C=C/c1cc2cccc(OC)c2[nH]c1=O` [CTR-21, (E)-8-methoxy-3-(3-(2-methoxyphenyl)-3-oxoprop-1-enyl) quinolin-2(1H)-one]: the “CI (combinatorial index)” value in the experiment with HeLa cells (ABT-737 1.5625 μM + CTR-21 0.78 nM) is on record as 0.48; with MDA-MB-231TaxR cells, 0.35. For the same compound, in the experiment on HeLa cells (CTR-21 0.78 nM with low doses of ABT-737), the “combination index (CI)” value is given as “less than 1.0”.
